Molecular target: T1, MAP3K5 (Homo sapiens, UniProt Q99683)
T1 sequence (Q99683 1-1374): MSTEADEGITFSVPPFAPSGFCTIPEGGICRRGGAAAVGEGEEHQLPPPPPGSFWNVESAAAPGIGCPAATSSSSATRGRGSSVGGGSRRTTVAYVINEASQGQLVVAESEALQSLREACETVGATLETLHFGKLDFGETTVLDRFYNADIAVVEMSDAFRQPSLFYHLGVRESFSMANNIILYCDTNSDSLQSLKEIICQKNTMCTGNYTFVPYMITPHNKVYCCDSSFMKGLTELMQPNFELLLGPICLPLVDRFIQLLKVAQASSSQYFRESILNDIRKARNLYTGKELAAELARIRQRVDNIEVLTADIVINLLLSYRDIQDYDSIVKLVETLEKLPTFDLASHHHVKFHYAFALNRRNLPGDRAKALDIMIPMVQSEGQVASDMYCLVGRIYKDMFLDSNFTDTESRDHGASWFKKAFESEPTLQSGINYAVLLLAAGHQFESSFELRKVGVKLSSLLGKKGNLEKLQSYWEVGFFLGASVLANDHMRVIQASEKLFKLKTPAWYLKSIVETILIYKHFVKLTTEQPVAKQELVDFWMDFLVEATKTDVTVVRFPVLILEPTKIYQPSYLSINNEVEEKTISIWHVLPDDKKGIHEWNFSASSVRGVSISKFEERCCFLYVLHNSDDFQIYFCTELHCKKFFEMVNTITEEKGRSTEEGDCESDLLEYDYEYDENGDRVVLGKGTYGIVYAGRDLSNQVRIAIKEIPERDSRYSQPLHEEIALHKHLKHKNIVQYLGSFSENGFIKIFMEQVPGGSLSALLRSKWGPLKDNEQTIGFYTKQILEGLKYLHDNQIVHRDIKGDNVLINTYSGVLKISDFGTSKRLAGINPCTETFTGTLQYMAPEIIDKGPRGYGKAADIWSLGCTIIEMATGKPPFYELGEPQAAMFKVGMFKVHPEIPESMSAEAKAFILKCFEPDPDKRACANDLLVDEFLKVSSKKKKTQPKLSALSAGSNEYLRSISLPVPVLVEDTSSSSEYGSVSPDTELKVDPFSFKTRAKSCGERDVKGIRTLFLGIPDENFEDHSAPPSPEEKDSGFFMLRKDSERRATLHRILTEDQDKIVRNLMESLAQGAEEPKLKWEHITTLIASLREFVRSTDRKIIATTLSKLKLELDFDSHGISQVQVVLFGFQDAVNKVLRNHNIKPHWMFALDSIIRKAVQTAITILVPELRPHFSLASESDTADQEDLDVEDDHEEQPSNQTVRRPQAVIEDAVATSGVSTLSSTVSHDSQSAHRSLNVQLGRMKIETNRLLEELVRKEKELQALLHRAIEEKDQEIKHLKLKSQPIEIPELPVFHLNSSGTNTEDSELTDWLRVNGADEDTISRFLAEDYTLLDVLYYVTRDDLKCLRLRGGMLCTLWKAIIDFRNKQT
Test: Kinobeads competition binding, HL60 cell lysate
Set-up: endogenous in cells; host or cells: HL60 cell lysate
Settings: 10 μM free compound
Experimental: To one aliquot of cell lysate 10 μM of the free compound (FIG. 3, CZC31326) was added and allowed to bind to proteins in the lysate. Then the affinity matrix with the immobilized compound (Example 1) was added to capture proteins that were not interacting with the previously added free compound. Beads were separated from the lysate and bead bound proteins were eluted in SDS sample buffer and subsequently separated by SDS-Polyacrylamide gel electrophoresis (FIG. 4). Suitable gel bands were cut out and subjected to in-gel proteolytic digestion with trypsin. The second lysate aliquot was processed identically, however no free compound was added (DMSO solvent control). Peptides originating from samples 1 and 2 were labeled with iTRAQ reagents (iTRAQ 114 and iTRAQ 117) and the combined samples were analyzed with a nano-flow liquid chromatography system coupled online to a tandem mass spectrometer (LC-MS/MS) experiment followed by iTRAQ reporter ion quantification in the MS/MS spectra (Ross et al., 2004. Mol. Cell. Proteomics 3(12):1154-1169). Further experimental protocols can be found in WO2006/134056 and a previous publication (Bantscheff et al., 2007. Nature Biotechnology 25, 1035-1044). Sepharose-beads with the immobilized compound (100 μl beads per pull-down experiment) were equilibrated in lysis buffer and incubated with a cell lysate sample containing 50 mg of protein on an end-over-end shaker (Roto Shake Genie, Scientific Industries Inc.) for 2 hours at 4° C. […] The iTRAQ reagents are a set of multiplexed, amine-specific, stable isotope reagents that can label peptides on amino groups in up to four different biological samples enabling simultaneous identification and quantitation of peptides. […] Relative protein quantitation was performed using peak areas of iTRAQ reporter ion signals essentially as described in an earlier publication (Bantscheff et al., 2007. Nature Biotechnology 25, 1035-1044).

- inhibition at 10 µM: 88.4%
SMILES: CS(=O)(=O)Nc1ccccc1Nc1nc(Nc2cccc(OCCN)c2)ncc1Cl [CZC31326, N-(2-(2-(3-(2-aminoethoxy)phenylamino)-5-chloropyrimidin-4-ylamino)phenyl)methanesulfonamide]
